Assay results as given in patent US20220062291A1, “COMPOSITIONS AND METHODS OF TREATING CANCERS BY ADMINISTERING A PHENOTHIAZINE-RELATED DRUG THAT ACTIVATES PROTEIN PHOSPHATASE 2A (PP2A) WITH REDUCED INHIBITORY ACTIVITY TARGETED TO THE DOPAMINE D2 RECEPTOR AND ACCOMPANYING TOXICITY” (DANA-FARBER CANCER INSTITUTE, INC., priority 2018, published 2022).
“Also recorded” adds a separate entry of the source.

Key:
[1] = system: KOPT-K1 cells; test: Cell cycle status by PI flow cytometry; assay type: cell-based, human; conditions: 24 hours
Method: Relative DNA content of cells in each of the samples was determined by measuring PI (propidium iodide) staining using flow cytometry. The results are illustrated in FIG. 31A-FIG. 31B.
Relative DNA content of cells in each of the samples was determined as described above.

[2] = system: KOPT-K1 cells; test: Microtubule and chromatin staining of cytospins; assay type: cell-based, human; conditions: 24 hours
[3] = molecular target: T1, PP2A (purified PPP2R1A, PPP2CA and PPP2R5E subunits) (Homo sapiens, UniProt P30153+P67775+Q16537); test: PP2A Immunoprecipitation Phosphatase Assay with purified subunits; assay type: biochemical
T1 construct: made in house; host or cells: Hi5 insect cells (baculovirus, pAC8 vectors; virus produced in Sf9)
T1 sequence (P30153 whole entry): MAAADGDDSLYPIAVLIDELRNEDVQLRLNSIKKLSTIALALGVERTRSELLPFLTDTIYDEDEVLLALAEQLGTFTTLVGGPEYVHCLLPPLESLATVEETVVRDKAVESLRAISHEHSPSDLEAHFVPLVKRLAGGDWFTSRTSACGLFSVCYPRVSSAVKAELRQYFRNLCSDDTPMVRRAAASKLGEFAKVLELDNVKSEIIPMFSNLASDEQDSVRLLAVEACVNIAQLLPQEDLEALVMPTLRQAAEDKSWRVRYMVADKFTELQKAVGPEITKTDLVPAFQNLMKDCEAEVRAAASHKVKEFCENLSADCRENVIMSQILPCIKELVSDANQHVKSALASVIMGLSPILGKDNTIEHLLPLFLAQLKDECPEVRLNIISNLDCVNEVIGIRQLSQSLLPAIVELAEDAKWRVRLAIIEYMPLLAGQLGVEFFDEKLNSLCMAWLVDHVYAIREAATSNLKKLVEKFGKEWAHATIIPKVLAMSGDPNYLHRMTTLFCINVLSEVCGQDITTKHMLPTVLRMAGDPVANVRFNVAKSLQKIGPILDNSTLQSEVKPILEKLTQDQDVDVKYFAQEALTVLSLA
T1 sequence (P67775 whole entry): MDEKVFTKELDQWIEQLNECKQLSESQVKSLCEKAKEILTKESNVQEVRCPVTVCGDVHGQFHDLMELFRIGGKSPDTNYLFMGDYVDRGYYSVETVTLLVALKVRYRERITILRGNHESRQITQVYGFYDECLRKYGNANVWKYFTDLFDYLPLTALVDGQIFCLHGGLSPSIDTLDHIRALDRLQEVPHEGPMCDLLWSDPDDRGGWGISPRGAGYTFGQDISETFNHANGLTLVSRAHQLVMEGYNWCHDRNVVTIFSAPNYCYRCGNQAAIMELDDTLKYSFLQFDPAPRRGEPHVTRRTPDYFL
T1 sequence (Q16537 whole entry): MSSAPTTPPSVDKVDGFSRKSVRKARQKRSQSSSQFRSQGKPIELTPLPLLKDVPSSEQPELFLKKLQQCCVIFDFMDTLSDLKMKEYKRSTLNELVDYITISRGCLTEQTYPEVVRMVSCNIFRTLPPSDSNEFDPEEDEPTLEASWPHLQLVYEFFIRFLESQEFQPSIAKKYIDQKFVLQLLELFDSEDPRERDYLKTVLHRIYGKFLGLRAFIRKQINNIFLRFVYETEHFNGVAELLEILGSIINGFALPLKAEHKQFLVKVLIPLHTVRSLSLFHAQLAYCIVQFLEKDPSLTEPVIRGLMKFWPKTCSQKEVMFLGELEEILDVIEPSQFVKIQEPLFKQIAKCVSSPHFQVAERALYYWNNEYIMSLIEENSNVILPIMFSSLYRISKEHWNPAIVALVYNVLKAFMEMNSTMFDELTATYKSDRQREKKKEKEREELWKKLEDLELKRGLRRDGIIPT
Method: The data is presented as mean±s.d. (n=3, biological replicates). *P<0.05 by student's t-test.
Phosphatase activity of PP2A was measured using the PP2A Immunoprecipitation Phosphatase Assay Kit (Merck Millipore®) (FIG. 21A-FIG. 21B). […] The proteins were subsequently incubated with protein A agarose slurry and 4 μg of anti-PPP2CA antibody (Merck Millipore®, #05-421, clone 1D6) at 4° C. with constant rocking for one hour. Agarose-bound immune complexes were collected, then washed with 700 μl TBS (3 times) and 500 μl Ser/Thr buffer (final wash), before resuspending them in 20 μl Ser/Thr buffer. A phosphopeptide (amino acid sequence: K-R-pT-I-R-R) was added as a substrate for PPP2CA, and samples were incubated at 30° C. in a shaking incubator for 10 minutes. Supernatants (25 μl) were then transferred onto 96-well plate, and released phosphate was measured by adding 100 μl malachite green phosphate detection solution. Absorbance was read by SpectraMax® M5 Multi-Mode Microplate Reader (Molecular Devices LLC) at 650 nm. Phosphate concentrations were calculated from a standard curve generated from serial dilutions of standard phosphate solution (0-2,000 pmol).

[4] = molecular target: T2, human dopamine receptor D2 (DRD2) (Homo sapiens, UniProt P14416); test: Dopamine receptor D2 inhibition assay (SRE-luciferase reporter in HEK293T cells); assay type: cell-based; conditions: for inhibitory activity on DRD2: 0.5, 1, 2 and 4 μM for three hours with 2 μM dopamine
T2 construct: expressed in transfected cells; host or cells: HEK293T (pcDNA3 vectors)
T2 sequence (P14416 whole entry): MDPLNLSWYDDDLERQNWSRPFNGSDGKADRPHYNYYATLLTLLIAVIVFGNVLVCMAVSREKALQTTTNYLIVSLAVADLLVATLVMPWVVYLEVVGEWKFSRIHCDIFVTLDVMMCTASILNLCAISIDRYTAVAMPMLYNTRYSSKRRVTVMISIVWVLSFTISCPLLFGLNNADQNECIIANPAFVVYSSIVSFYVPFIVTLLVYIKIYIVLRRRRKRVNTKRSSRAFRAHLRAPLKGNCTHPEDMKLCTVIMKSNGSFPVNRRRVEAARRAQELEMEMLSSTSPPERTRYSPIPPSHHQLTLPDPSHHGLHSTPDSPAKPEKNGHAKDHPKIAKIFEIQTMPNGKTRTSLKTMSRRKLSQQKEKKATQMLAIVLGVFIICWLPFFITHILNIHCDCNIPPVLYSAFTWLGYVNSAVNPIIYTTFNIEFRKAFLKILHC
Description: (§1) The human dopamine receptor D2 (DRD2) and modified murine Gq5i cDNAs were inserted into pcDNA3 expression vectors. After verifying the PCR products by DNA sequencing, DRD2, Gq5i and the PathDetect pSRE-Luc Cis-Reporter Plasmid (#219080, Agilent Technologies) were transfected to HEK293T cells. As previously reported, Gq5i enables Gi/o-coupled receptor activity to be detected using a serum response element (SRE)-luciferase reporter gene (See, Conklin et al., Nature 363(6426):274-6 (1993); Al-Fulaij et al., J. Pharmacol. Exp. Ther. 321(1):298-307 (2007)). These cells were starved in FCS-free DMEM medium for six hours before incubating them with 2 μM dopamine hydrochloride (Sigma Aldrich) together with each of the compound at 0, 0.5, 1, 2 and 4 μM for three hours. The reporter activity was measured using Pierce™ Firefly Luciferase Glow Assay Kit (Thermo Fisher Scientific).
For IC50 calculation, KOPT-K1 cells were treated with each of the compounds at various concentrations for 72 hours, followed by the determination of viable cell numbers with PrestoBlue® cell viability reagent. For the PP2A phosphatase activity assay, KOPT-K1 cells were treated with each of the compounds at 10 μM for 3 hours before phosphatase activity was measured. Dopamine D2 receptor activity was monitored in HEK293T cells coexpressing the dopamine D2 receptor, modified G protein and SRE luciferase reporter. Cells were treated with each of the compound at 10 μM for 3 hours, then lysed for the luciferase reporter assay.
as §1, with “D2” for “D2 (DRD2)”, “363(6426):274-276” for “363(6426):274-6”, “0.5” for “0, 0.5, 1, 2 and 4”

[5] = system: KOPT-K1 cells; test: Survival of NSG mice xenotransplanted with KOPT-K1 cells; assay type: in vivo, NSG (NOD/Scid/IL2Rγnull) mice; conditions: 2.5 mg/kg/day, oral, from day 10
Description: At day one, 1×10^6 KOPT-K1 cells were intravenously injected into each mouse via its tail veins.

[6] = molecular target: T3, PP2A subunits in KOPT-K1 cell lysates (Homo sapiens, UniProt P30153+P67775+Q16537); test: Cellular thermal shift assay (CETSA), PP2A subunits; assay type: binding; conditions: PPZ at 10 μM, one hour
T3 construct: are endogenously expressed by KOPTK1 cells; endogenous in cells; host or cells: KOPT-K1 T-ALL cells / lysates
T3 sequence (P30153 whole entry): as the sequence (P30153 whole entry) above
T3 sequence (P67775 whole entry): as the sequence (P67775 whole entry) above
T3 sequence (Q16537 whole entry): as the sequence (Q16537 whole entry) above
Description: The cell lysates were then ultra-centrifuged to precipitate the aggregated pool of the protein, followed by quantification of the remaining soluble protein fraction by immunoblotting with antibodies specific to each of the PP2A subunits.
A similar experiment was set up to examine target engagement specificity of iPAP1 to PP2A subunits in KOPT-K1 cells (FIG. 18G-FIG. 18L). […] A western blot of the KOPT-K1 cell lysates is illustrated in FIG. 19B.

[7] = Movement disorder in free-swimming zebrafish embryos; assay type: in vivo; conditions: five days
Description: Note that the embryos were not anesthetized. Scale bar: 0.1 mm.

SMILES | cell cycle status ([1]; 10 μM and 20 μM) | mitotic and microtubule phenotype ([2]; 10 μM and 20 μM) | phosphatase activity of PP2A assembled from purified PPP2R1A, PPP2CA and PPP2R5E ([3]; one hour at room temperature) | inhibitory activity on DRD2 [4] | overall survival [5] | thermal stabilization of PP2A subunits [6] | swimming behaviour / movement disorder ([7]; 5 μM) | cell cycle status ([1]; 1 μM and 2 μM) | mitotic and microtubule phenotype ([2]; 2 μM and 5 μM) | PP2A activated at lower molar concentrations than PPZ ([3]; purified subunits) | equivalent PP2A activation activity at lower concentrations compared to PPZ ([3]; purified subunits 200 ng each, one hour at room temperature) | inhibitory activities on DRD2 ([4]; 0.5 μM for three hours with 2 μM dopamine) | inhibitory activity against DRD2 compared to PPZ ([4]; 10 μM for three hours) | DRD2 inhibitory activity as share of the activity of PPZ ([4]; 0.5 to 4 μM) | less active in inhibiting DRD2 than PPZ ([4]; multiple molar concentrations) | swimming behaviour / movement disorder ([7]; 2 μM)
OCCN1CCN(CCCN2c3ccccc3Sc3ccc(Cl)cc32)CC1 [PPZ, perphenazine, reference compound] | induced significant G2/M phase arrest | prometaphase arrest at the monopolarity stage | Phosphatase activity increased with increasing concentrations of PPZ | strong inhibitory activity on DRD2 at 0.5 μM; also recorded: strong inhibitory activity of DRD2 activity at concentrations as low as 0.5 μM | did not show any survival advantage over the control | significantly enhanced stabilization of PPP2R1A, PPP2CA and PPP2R5E | exhibited movement disorders and swam upside down or on their sides |  |  |  |  |  |  |  |  | 
COc1ccc(C(=O)N2c3ccccc3Sc3ccc(Cl)cc32)cc1 [iPAP1] |  |  | the phosphatase activity of PP2A was increased upon iPAP1 treatment | no inhibitory activity of DRD2 signaling at concentrations up to 4 μM | significantly extended the overall survival period | protection of the PP2A subunits from thermal degradation similar to PPZ |  | induced significant G2/M phase arrest | prometaphase arrest at the monopolarity stage | ~10 fold | ~10 times | did not show inhibitory activities on DRD2 | ~1% | less than 1% | more than 100 fold | swam upright
